Experiment [1] deals with Candida albicans. The experiment in a line: Antimicrobial activity against Candida albicans NBRC0197 at 100 ug/ml by microplate reader assay. Format: functional, organism-based. The note with it: dose 100.0 µg/ml.
The test system of experiment [2] is Ralstonia solanacearum. The experiment in a line: Antimicrobial activity against Ralstonia solanacearum SUPP1541 at 100 ug/ml incubated for 24 hrs by microplate reader assay. It is filed as functional, organism-based. The note with it: dose 100.0 µg/ml.
Experiment [3] has as its system Staphylococcus aureus. The experiment in a line: Antimicrobial activity against Staphylococcus aureus FDA209 JC-1 at 100 ug/ml incubated for 24 hrs by microplate reader assay. Format: functional, organism-based. The note with it: dose 100.0 µg/ml.
For experiment [4], the system named is Agrobacterium tumefaciens. The experiment in a line: Antimicrobial activity against Rhizobium radiobacter NBRC14554 at 100 ug/ml incubated for 24 hrs by microplate reader assay. It is filed as functional, organism-based. The note with it: dose 100.0 µg/ml.
The test system of experiment [5] is Trypanosoma cruzi. The experiment in a line: Antitrypanosomal activity against Trypanosoma cruzi Tulahuen epimastigotes incubated for 24 hrs by cell titer glo luminescent assay. Format: functional, organism-based.
The subject of experiment [6] is Kocuria rhizophila. The experiment in a line: Antimicrobial activity against Kocuria rhizophila ATCC9341 at 100 ug/ml incubated for 24 hrs by microplate reader assay. It is filed as functional, organism-based. The note with it: dose 100.0 µg/ml.
The subject of experiment [7] is P338. The experiment in a line: Cytotoxicity against mouse P388 cells at 100 uM incubated for 84 hrs by MTT assay. It is filed as functional, cell-based. For orientation: Formazan colour is commonly taken as a measure of viable cells.
Experiment [8] concerns Escherichia coli. The experiment in a line: Antimicrobial activity against Escherichia coli NIHJ JC-2 at 100 ug/ml incubated for 24 hrs by microplate reader assay. Format: functional, organism-based. The note with it: dose 100.0 µg/ml.

The values below come from ChEMBL document CHEMBL5257043, “Bulbiferamide, an Antitrypanosomal Hexapeptide Cyclized via an N-Acylindole Linkage from a Marine Obligate Microbulbifer” (J Nat Prod, 2023).

pIC50: −log10 of the molar value. Calls of active or inactive are those of the source. The calls are words filed in the database; no cut-off is given here. *1 amine or outer side, *2 acyl side, *3 side chain or, on linkers, in order; H or OH if unused. Where a SMILES comes first, the peptide text is derived from it. Bridges are numbered along the chain shown (N, C = ends). CO = O=C([*:1])[*:2]

By pIC50 is commonly meant the negative decadic logarithm of the IC50, by convention in mol/L. Lower therefore signals a large IC50.

Take `CC[C@H](C)[C@@H]1NC(=O)[C@@H](NC(=O)[C@H](CC(C)C)NC(=O)N[C@@H](Cc2ccccc2)C(=O)O)Cc2cn(c3ccccc23)C(=O)[C@H](CC(C)C)NC(=O)[C@H](CCCNC(=N)N)NC1=O` ({Phe-CO}-LWIRL; lactam 2-C): the result in experiment [1], in experiment [2], in experiment [3], in experiment [4], in experiment [6] and in experiment [7] was inactive. The outcome in experiment [8] was inactive. The same compound showed a pIC50 in experiment [5] of 5.39.
On to `O=C(Cn1ccnc1[N+](=O)[O-])NCc1ccccc1` [BENZNIDAZOLE], for which the pIC50 in experiment [5] was 4.70.
